Laboratory results taken from the NIST ThermoML archive (doi:10.1021/je0501078).

Experiments:
[1] = Crystal
[2] = Molar enthalpy of transition or fusion; details: Crystal
[3] = molar heat capacity at saturation pressure

O=C1CCCCC1C1(O)CCCCC1 (stereo unspecified) [1'-hydroxy-[1,1'-bicyclohexyl]-2-one]
Details	mass density [kg/m3]
[1], 292 K, 101.33 kPa, Pycnometric method	1140

Details	Molar enthalpy of transition or fusion, [2] [kcal/mol]	Triple point temperature, [1] [K]
Adiabatic calorimetry	4.974	306.75
DSC	4.95	306.9

[3]
Details	molar heat capacity [J/K/mol]
5.16 K, Crystal	0.533
5.41 K, Crystal	0.6159
5.68 K, Crystal	0.7141
5.97 K, Crystal	0.8182
6.29 K, Crystal	0.9686
6.62 K, Crystal	1.137
6.94 K, Crystal	1.337
7.27 K, Crystal	1.564
7.69 K, Crystal	1.849
8.09 K, Crystal	2.166
8.51 K, Crystal	2.524
8.97 K, Crystal	2.903
9.4 K, Crystal	3.307
9.86 K, Crystal	3.764
10.32 K, Crystal	4.247
10.8 K, Crystal	4.745
11.34 K, Crystal	5.386
11.91 K, Crystal	6.078
12.5 K, Crystal	6.783
13.09 K, Crystal	7.518
13.65 K, Crystal	8.27
14.26 K, Crystal	9.088
14.87 K, Crystal	9.894
15.47 K, Crystal	10.71
16.12 K, Crystal	11.66
16.79 K, Crystal	12.66
17.47 K, Crystal	13.66
18.17 K, Crystal	14.72
18.86 K, Crystal	15.8
19.61 K, Crystal	16.87
20.52 K, Crystal	18.24
21.52 K, Crystal	19.81
22.54 K, Crystal	21.36
23.56 K, Crystal	22.97
24.68 K, Crystal	24.67
25.89 K, Crystal	26.58
27.12 K, Crystal	28.34
28.37 K, Crystal	30.15
29.78 K, Crystal	32.21
31.31 K, Crystal	34.26
32.81 K, Crystal	36.25
34.25 K, Crystal	38.29
35.69 K, Crystal	40.02
37.25 K, Crystal	42.05
38.95 K, Crystal	44.28
40.79 K, Crystal	46.36
42.67 K, Crystal	48.72
44.41 K, Crystal	50.59
46.25 K, Crystal	52.77
48.19 K, Crystal	54.67
50.08 K, Crystal	56.63
51.93 K, Crystal	58.46
53.83 K, Crystal	60.66
55.82 K, Crystal	62.66
57.81 K, Crystal	64.39
59.76 K, Crystal	66.21
61.73 K, Crystal	68.03
63.72 K, Crystal	69.96
65.71 K, Crystal	71.5
67.67 K, Crystal	73.51
69.76 K, Crystal	75.35
72.08 K, Crystal	77.34
74.55 K, Crystal	79.53
76.99 K, Crystal	81.52
79.43 K, Crystal	83.56
81.9 K, Crystal	85.64
84.37 K, Crystal	87.8
86.86 K, Crystal	89.8
89.34 K, Crystal	92.04
91.79 K, Crystal	93.87
94.27 K, Crystal	96.03
96.74 K, Crystal	97.94
99.23 K, Crystal	100.3
99.86 K, Crystal	100.6
101.72 K, Crystal	102.1
101.89 K, Crystal	102.2
103.96 K, Crystal	103.9
104.22 K, Crystal	104.1
106 K, Crystal	105.5
108.09 K, Crystal	107.2
110.22 K, Crystal	108.8
112.32 K, Crystal	110.3
114.47 K, Crystal	112.2
116.67 K, Crystal	113.7
118.84 K, Crystal	115.6
120.97 K, Crystal	117
123.07 K, Crystal	118.7
125.14 K, Crystal	120.4
127.19 K, Crystal	122.1
129.21 K, Crystal	123.6
131.21 K, Crystal	125.2
133.17 K, Crystal	126.7
135.12 K, Crystal	128.2
137.05 K, Crystal	129.6
138.96 K, Crystal	131.3
141 K, Crystal	132.8
143.17 K, Crystal	134.4
145.31 K, Crystal	136.2
147.42 K, Crystal	137.7
149.52 K, Crystal	139.4
149.69 K, Crystal	139.5
151.77 K, Crystal	141.3
153.83 K, Crystal	142.8
155.94 K, Crystal	144.7
158.11 K, Crystal	146.2
160.26 K, Crystal	148.1
162.4 K, Crystal	149.6
164.58 K, Crystal	151.5
166.82 K, Crystal	153.1
169.05 K, Crystal	154.8
171.25 K, Crystal	156.7
173.43 K, Crystal	158.6
175.59 K, Crystal	160.1
177.74 K, Crystal	162
179.87 K, Crystal	163.8
181.98 K, Crystal	165.4
184.22 K, Crystal	167.4
186.58 K, Crystal	169.1
188.92 K, Crystal	171.2
191.24 K, Crystal	172.9
193.62 K, Crystal	174.9
196.06 K, Crystal	176.6
198.49 K, Crystal	179
200.89 K, Crystal	180.8
203.28 K, Crystal	182.7
205.65 K, Crystal	184.8
208.08 K, Crystal	186.7
210.57 K, Crystal	188.6
213.04 K, Crystal	191
215.63 K, Crystal	192.9
218.36 K, Crystal	195.1
220.54 K, Crystal	197.1
223.28 K, Crystal	199.4
226 K, Crystal	201.5
228.71 K, Crystal	203.8
231.37 K, Crystal	206.2
234.03 K, Crystal	209.2
236.67 K, Crystal	210.8
239.45 K, Crystal	214
242.37 K, Crystal	216.3
245.3 K, Crystal	218.9
248.2 K, Crystal	221.7
251.09 K, Crystal	224
253.97 K, Crystal	227.2
256.81 K, Crystal	229.6
259.61 K, Crystal	232.7
262.37 K, Crystal	235.2
265.1 K, Crystal	238.8
267.8 K, Crystal	241.5
270.46 K, Crystal	244.1
273.22 K, Crystal	247.9
274.83 K, Crystal	249.2
276.1 K, Crystal	250.8
277.41 K, Crystal	252.4
278.95 K, Crystal	254.3
279.97 K, Crystal	255.8
281.77 K, Crystal	257.8
282.51 K, Crystal	258.4
284.57 K, Crystal	261.4
285.02 K, Crystal	262
287.35 K, Crystal	264.2
287.51 K, Crystal	264.9
289.97 K, Crystal	267.6
290.11 K, Crystal	268.6
292.4 K, Crystal	271.5
292.83 K, Crystal	271.4
294.18 K, Crystal	273.5
295.66 K, Crystal	275.3
308.34 K, Liquid	351
310.04 K, Liquid	351.5
311.73 K, Liquid	353.4
